Where “and” joins values, the source holds several entries; their conditions need not be identical. Identical values can stand only once.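 Where inhibition never reached the appropriate level, the endpoint shown equals the highest concentration tested. Otherwise, values were interpolated linearly from a five-concentration, 48-hour dose response in 96-well plates. GI50: concentration for 50% inhibition of growth. TGI denotes the concentration required for complete inhibition of growth.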 Where a SMILES comes first, the peptide text is derived from it. Bridges are numbered along the chain shown (N, C = ends).
Tests used:
Experiment in all cases: NCI anticancer screen, dose series, 48 h
[1] = test system: SNB-78 CNS
[2] = test system: A549 NSCLC
[3] = test system: MOLT-4 leukemia
[4] = test system: CCRF-CEM leukemia
[5] = test system: HOP-18 NSCLC
[6] = test system: NCI-H226 lung
[7] = test system: OVCAR-3 ovarian
[8] = test system: SK-MEL-28 melanoma
[9] = test system: MALME-3M melanoma
[10] = test system: COLO 205 colon

Structure (SMILES)	TGI [1]	TGI [2]	TGI [3]	TGI [4]	TGI [5]	GI50 [6]	TGI [6]	TGI [7]	GI50 [8]	TGI [8]	TGI [9]	TGI [10]	GI50 [1]	GI50 [7]	GI50 [2]	GI50 [3]	GI50 [4]	GI50 [5]	GI50 [10]	GI50 [9]
Cc1c2cc[n+](C)cc2c(C)c2c1[nH]c1ccc(OCC(F)(F)F)cc12	> 100 µM	> 100 µM	11.1 µM and > 55.9 µM	> 100 µM	23.4 µM and > 100 µM	0.581 µM	1.69 µM and 3.75 µM	25 µM and > 100 µM	5.31 µM and > 33.4 µM	> 100 µM	8.25 µM	–	–	–	–	–	–	–	–	–
CCCCn1c(-c2ccccc2)cs/c1=N\NC(=O)Cn1c(C)nc2ccccc21	> 100 µM	> 100 µM	57.4 µM	99.4 µM	> 100 µM	–	> 100 µM	> 100 µM	–	–	> 100 µM	38.2 µM	–	–	–	–	–	–	–	–
CSCSCC(CO)NC(=O)/C=C\c1c(C)[nH]c(=O)[nH]c1=O (stereo unspecified)	260 µM	375 µM	59.1 µM	37.4 µM	267 µM	49.8 µM	309 µM	14 µM	–	219 µM	76.6 µM	78.9 µM	30.9 µM	1.41 µM	–	–	–	–	–	–
N/C(=N\N=C/c1c(O)cc(O)cc1O)NO	> 100 µM	> 100 µM	> 100 µM	> 92.6 µM	> 100 µM	–	> 100 µM	> 100 µM	–	> 100 µM	> 100 µM	> 100 µM	–	–	–	–	–	–	–	–
c1ccc(C2N=C(c3ccccn3)C(c3ccccn3)=NC2c2ccccc2)cc1 (stereo unspecified)	> 100 µM	> 100 µM	> 100 µM	> 100 µM	> 100 µM	–	> 100 µM	> 100 µM	–	> 100 µM	> 100 µM	> 100 µM	–	–	–	–	–	–	–	–
CC(C)=CC(=O)OC1C2C(C)=CC(=O)C(O)C2(C)C2C3(O)OCC24C(CC(=O)OC14)C(C)C3O (stereo unspecified)	0.36 µM and 0.153 µM	0.598 µM and 1.55 µM and 2.22 µM	–	0.109 µM and 0.177 µM and 0.253 µM	0.689 µM and 0.493 µM	0.02 µM	–	0.0226 µM and 0.0354 µM	0.02 µM	0.0175 µM and 0.0363 µM	0.0136 µM	0.359 µM and 1.11 µM and 0.42 µM	0.0575 µM	–	0.0545 µM and 0.178 µM	0.02 µM	0.02 µM	0.192 µM and 0.0777 µM	0.117 µM	0.00475 µM
O=c1[nH]c(=S)[nH]c2c1CCCN2	> 100 µM	> 100 µM	> 100 µM	> 100 µM	> 100 µM	–	–	> 100 µM	–	> 100 µM	> 100 µM	> 100 µM	–	–	–	–	–	–	–	–
C/C(N=NS(=O)(=O)c1c(C)cc(C)cc1C)=C1\C=CC=CN1O	> 100 µM	> 100 µM	> 100 µM	> 100 µM	> 100 µM	–	–	> 100 µM	–	> 100 µM	–	–	–	–	–	–	–	–	–	–
CCN(CC)CC[n+]1ccc2c(C)c3[nH]c4ccccc4c3c(C)c2c1	1.49 µM and 7.14 µM	5.22 µM and 5.45 µM and 8.14 µM	1.59 µM and 6.02 µM and 3.27 µM	4.33 µM and 2.1 µM and 2.27 µM	4.82 µM and 7.88 µM	0.346 µM and 0.529 µM and 0.0944 µM	1.89 µM and 2.89 µM and 0.693 µM	2.02 µM and 4.55 µM and 2.07 µM	1.13 µM	1.3 µM and 6.15 µM and 2.1 µM	1.92 µM and 2.27 µM and 1.15 µM	0.525 µM and 0.878 µM and 1.55 µM	0.293 µM and 1.17 µM	0.934 µM	0.466 µM and 0.498 µM and 0.951 µM	0.274 µM	0.245 µM and 0.0957 µM	0.901 µM and 1.91 µM	0.131 µM and 0.297 µM and 0.412 µM	0.374 µM
O=C(NC1=C(Cl)C(=O)c2ccccc2C1=O)C(=O)c1c(O)c2ccccc2oc1=O	–	6.07 µM	18 µM	> 30.7 µM	–	–	28.9 µM	6.79 µM	–	6.2 µM	2.7 µM	17.9 µM	–	–	–	–	–	–	–	–
COC(=O)c1c(CC(=O)OC(C)C)cc2n(c1=O)Cc1c-2nc2ccccc2c1OC	–	> 100 µM	> 100 µM	> 100 µM	> 100 µM	–	> 100 µM	> 100 µM	–	> 100 µM	> 100 µM	> 100 µM	–	–	–	–	–	–	–	–
C(=Nc1ccc(-c2nc3ccccc3s2)cc1)c1cccs1	–	> 100 µM	> 100 µM	3.76 µM	–	–	> 100 µM	> 100 µM	–	> 100 µM	> 100 µM	> 100 µM	–	–	–	–	–	–	–	–
O=c1cc(-c2ccccc2)oc2cc(OCCCCCCCCCCOc3ccc4c(=O)cc(-c5ccccc5)oc4c3)ccc12	> 100 µM	> 100 µM	> 100 µM	> 100 µM	> 100 µM	–	–	> 100 µM	–	> 100 µM	> 100 µM	> 100 µM	–	–	–	–	–	–	–	–
Cc1ccc(N2Cc3c(ccc4ccccc34)OP2(=S)N2CCCC2)cc1 (stereo unspecified)	> 100 µM	> 100 µM	> 100 µM	> 100 µM	> 100 µM	–	> 100 µM	> 55.7 µM	–	> 100 µM	> 100 µM	> 100 µM	–	–	–	–	–	–	–	–
C[C@@H]1C[C@@H]2OC(=O)[C@]3(C)[C@H]2[C@@H](OC3(C)O)[C@]2(C)C(=O)C=C[C@@H]12 (stereo partly specified)	–	> 100 µM	39.7 µM	31.8 µM	–	–	> 100 µM	44.3 µM	–	45 µM	30.7 µM	32 µM	–	–	–	–	–	–	–	–
O=C(O)C12C=CC(C1)c1ccccc12 (stereo unspecified)	–	> 100 µM	> 100 µM	> 100 µM	> 100 µM	–	> 100 µM	> 100 µM	–	> 100 µM	> 100 µM	> 100 µM	–	–	–	–	–	–	–	–
C=C1C(=O)OC2C[C@@]3(C)CCCC(=C)C3CC12 (stereo partly specified)	13.5 µM	27.7 µM	–	> 100 µM	31.3 µM	–	26 µM	22.6 µM	–	24 µM	13.4 µM	6.85 µM	–	–	–	–	–	–	–	–
COC(=O)C1CCC(=O)NCCCCC(NC(=O)C(N)CC(=O)O)C(=O)N1 (stereo not drawn) (H-Asp-Lys-Glu-OMe; lactam 2-3; configuration not given here)	–	> 100 µM	> 100 µM	> 100 µM	–	–	> 100 µM	> 100 µM	–	> 100 µM	> 100 µM	> 100 µM	–	–	–	–	–	–	–	–
CN1COCN=C1NC#N	> 100 µM	> 100 µM	> 100 µM	> 100 µM	> 100 µM	–	> 100 µM	> 100 µM	–	> 100 µM	> 100 µM	> 100 µM	–	–	–	–	–	–	–	–
NCCCNCCSP(=O)(O)O	> 750 µM	> 750 µM	> 750 µM	> 750 µM	> 750 µM	–	> 750 µM	> 750 µM	–	> 750 µM	> 726 µM	> 657 µM	–	–	–	–	–	–	–	–
Cc1cc2ccccc2oc(=O)/c1=N\Nc1ccccc1	–	> 100 µM	> 100 µM	> 100 µM	–	–	> 100 µM	> 100 µM	–	> 100 µM	> 100 µM	> 100 µM	–	–	–	–	–	–	–	–
O=Cn1c2ccccc2c2ccccc21	> 100 µM	> 100 µM	> 100 µM	> 100 µM	> 100 µM	–	–	> 100 µM	–	> 100 µM	> 100 µM	> 100 µM	–	–	–	–	–	–	–	–
COc1ccc(/C=C/C(=O)c2cc(CN(C)C)c(O)c(CN(C)C)c2)cc1	–	> 100 µM	> 100 µM	> 100 µM	–	–	> 100 µM	56 µM	–	> 100 µM	54.2 µM	32.5 µM	–	–	–	–	–	–	–	–
COC(=O)[C@@H]1C=CCN1S(=O)(=O)c1ccc(C)cc1	–	> 100 µM	> 100 µM	72.1 µM	–	–	> 100 µM	> 100 µM	–	> 100 µM	> 100 µM	> 100 µM	–	–	–	–	–	–	–	–
COC(=O)c1ccc(C)cc1C1CN=NC12Cc1cccc(C)c1C2=O (stereo unspecified)	–	> 100 µM	43.1 µM	92.8 µM	–	–	73.6 µM	> 100 µM	–	91.8 µM	96.6 µM	> 100 µM	–	–	–	–	–	–	–	–
CC(C)=CCNc1ncnc2c1ncn2CCC(=O)O	–	> 100 µM	> 100 µM	> 100 µM	–	–	> 100 µM	> 100 µM	–	> 100 µM	> 100 µM	> 100 µM	–	–	–	–	–	–	–	–
COc1ccc(Cn2c(=O)c(OS(=O)(=O)C(F)(F)F)c(C)c3cc4ccccc4cc32)cc1	–	> 100 µM	> 100 µM	> 100 µM	–	–	> 100 µM	> 100 µM	–	> 100 µM	> 100 µM	> 100 µM	–	–	–	–	–	–	–	–

Source: PubChem BioAssay (NCI)
